Data as given in US11091479B2, “Triazolopyridin-3-ones or their salts and pharmaceutical compositions comprising the same” (YUHAN CORPORATION, priority 2018, dated 2021).
Structures can show the parent of a compound that is named as a salt.

Assays:
Assay type in all cases: biochemical
[1] = biological target: T1, recombinant human MAO-B (monoamine oxidase-B) (Homo sapiens, UniProt P27338); test: Activity on recombinant human MAO-B, method similar to VAP-1 assay, 1 mM benzylamine substrate; conditions: read-out: Inhibitory Activity (IC50, nM) MAO-B
T1 construct: purchased Sigma-Aldrich
T1 sequence (P27338 1-520): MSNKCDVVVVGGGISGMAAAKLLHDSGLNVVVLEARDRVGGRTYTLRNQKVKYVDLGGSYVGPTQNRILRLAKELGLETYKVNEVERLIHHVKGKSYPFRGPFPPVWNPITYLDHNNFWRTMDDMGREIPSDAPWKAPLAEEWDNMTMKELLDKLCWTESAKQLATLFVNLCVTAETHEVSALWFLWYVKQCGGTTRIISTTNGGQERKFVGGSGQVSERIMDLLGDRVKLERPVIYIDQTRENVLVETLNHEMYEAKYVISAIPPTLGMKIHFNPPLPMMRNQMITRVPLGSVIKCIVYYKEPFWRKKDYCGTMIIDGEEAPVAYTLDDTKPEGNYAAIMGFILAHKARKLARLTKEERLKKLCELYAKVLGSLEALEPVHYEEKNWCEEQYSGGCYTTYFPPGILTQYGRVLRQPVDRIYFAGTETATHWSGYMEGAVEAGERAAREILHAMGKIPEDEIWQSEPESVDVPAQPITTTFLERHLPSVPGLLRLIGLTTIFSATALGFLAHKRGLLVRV
How it was run: (§1)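 Amplex Red/HRP-coupled H2O2 fluorescence assay run as for VAP-1: enzyme in 50 mM sodium phosphate pH 7.4 preincubated with compound 30 min at 37 °C, then substrate (putrescine for DAO, benzylamine for MAO-B, tyramine for MAO-A) added with 200 uM Amplex Red, 1 U/mL HRP. Signal rate over 1-2 h; IC50 from 4-parameter logistic fit.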

[2] = biological target: T2, recombinant human MAO-A (monoamine oxidase-A) (Homo sapiens, UniProt P21397); test: Activity on recombinant human MAO-A, method similar to VAP-1 assay, 0.5 mM tyramine substrate; conditions: read-out: Inhibitory Activity (IC50, nM) MAO-A
T2 construct: purchased Sigma-Aldrich
T2 sequence (P21397 1-527): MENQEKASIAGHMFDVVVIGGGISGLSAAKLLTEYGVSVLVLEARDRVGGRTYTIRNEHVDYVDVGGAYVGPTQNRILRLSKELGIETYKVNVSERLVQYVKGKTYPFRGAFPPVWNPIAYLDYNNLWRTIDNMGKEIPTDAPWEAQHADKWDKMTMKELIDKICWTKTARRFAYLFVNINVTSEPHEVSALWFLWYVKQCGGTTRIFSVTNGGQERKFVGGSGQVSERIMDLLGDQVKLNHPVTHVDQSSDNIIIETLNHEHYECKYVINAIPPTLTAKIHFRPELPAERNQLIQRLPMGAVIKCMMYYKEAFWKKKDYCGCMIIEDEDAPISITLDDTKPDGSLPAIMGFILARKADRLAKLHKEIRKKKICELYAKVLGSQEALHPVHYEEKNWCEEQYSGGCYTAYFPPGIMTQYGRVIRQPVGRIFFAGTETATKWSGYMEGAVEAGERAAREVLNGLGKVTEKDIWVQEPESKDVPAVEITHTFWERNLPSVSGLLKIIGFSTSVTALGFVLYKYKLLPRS
How it was run: as §1

recombinant human VAP-1 = biological target: T3, recombinant human VAP-1 (Homo sapiens, UniProt Q16853); test: Activity on recombinant human VAP-1, HRP-coupled Amplex Red hydrogen peroxide assay, benzylamine substrate; conditions: 30 min incubation at 37° C., 1 mM benzylamine, read-out: Inhibitory Activity (IC50, nM) human VAP-1
T3 construct: purchased R&D systems
T3 sequence (Q16853 1-763): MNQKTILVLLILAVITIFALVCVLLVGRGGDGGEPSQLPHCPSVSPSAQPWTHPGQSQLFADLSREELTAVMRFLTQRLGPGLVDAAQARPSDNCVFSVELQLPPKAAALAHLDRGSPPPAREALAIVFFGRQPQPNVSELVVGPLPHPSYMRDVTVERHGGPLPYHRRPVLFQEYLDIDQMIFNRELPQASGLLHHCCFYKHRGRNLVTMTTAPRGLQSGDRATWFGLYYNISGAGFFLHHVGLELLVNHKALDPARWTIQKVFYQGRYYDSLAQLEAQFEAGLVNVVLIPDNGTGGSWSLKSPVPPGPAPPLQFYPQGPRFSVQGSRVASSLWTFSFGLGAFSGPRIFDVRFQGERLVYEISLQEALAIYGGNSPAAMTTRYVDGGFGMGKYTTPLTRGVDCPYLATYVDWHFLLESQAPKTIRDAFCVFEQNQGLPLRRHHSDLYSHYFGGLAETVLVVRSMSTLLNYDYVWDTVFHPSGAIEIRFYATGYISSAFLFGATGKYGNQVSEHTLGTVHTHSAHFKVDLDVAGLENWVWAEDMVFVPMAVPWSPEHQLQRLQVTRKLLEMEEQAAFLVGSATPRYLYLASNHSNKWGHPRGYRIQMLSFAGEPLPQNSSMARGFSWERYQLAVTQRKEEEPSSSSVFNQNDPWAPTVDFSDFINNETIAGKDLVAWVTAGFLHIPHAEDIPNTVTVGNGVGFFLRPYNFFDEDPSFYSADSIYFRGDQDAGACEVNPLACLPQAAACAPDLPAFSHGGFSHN
How it was run: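 Recombinant human VAP-1 in 50 mM sodium phosphate pH 7.4 preincubated with compound for 30 min at 37 °C, then 1 mM benzylamine, 200 uM Amplex Red and 1 U/mL HRP added. Resorufin fluorescence (ex 544/em 590 nm) followed over 1-2 h; % signal-rate decrease vs DMSO control, 8-point 4-parameter fit for IC50.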

[3] = biological target: T4, recombinant human DAO (diamine oxidase) (Homo sapiens, UniProt P19801); test: Activity on recombinant human DAO, method similar to VAP-1 assay, 1 mM putrescine substrate; conditions: read-out: Inhibitory Activity (IC50, nM) DAO
T4 construct: purchased R&D systems
T4 sequence (P19801 20-751): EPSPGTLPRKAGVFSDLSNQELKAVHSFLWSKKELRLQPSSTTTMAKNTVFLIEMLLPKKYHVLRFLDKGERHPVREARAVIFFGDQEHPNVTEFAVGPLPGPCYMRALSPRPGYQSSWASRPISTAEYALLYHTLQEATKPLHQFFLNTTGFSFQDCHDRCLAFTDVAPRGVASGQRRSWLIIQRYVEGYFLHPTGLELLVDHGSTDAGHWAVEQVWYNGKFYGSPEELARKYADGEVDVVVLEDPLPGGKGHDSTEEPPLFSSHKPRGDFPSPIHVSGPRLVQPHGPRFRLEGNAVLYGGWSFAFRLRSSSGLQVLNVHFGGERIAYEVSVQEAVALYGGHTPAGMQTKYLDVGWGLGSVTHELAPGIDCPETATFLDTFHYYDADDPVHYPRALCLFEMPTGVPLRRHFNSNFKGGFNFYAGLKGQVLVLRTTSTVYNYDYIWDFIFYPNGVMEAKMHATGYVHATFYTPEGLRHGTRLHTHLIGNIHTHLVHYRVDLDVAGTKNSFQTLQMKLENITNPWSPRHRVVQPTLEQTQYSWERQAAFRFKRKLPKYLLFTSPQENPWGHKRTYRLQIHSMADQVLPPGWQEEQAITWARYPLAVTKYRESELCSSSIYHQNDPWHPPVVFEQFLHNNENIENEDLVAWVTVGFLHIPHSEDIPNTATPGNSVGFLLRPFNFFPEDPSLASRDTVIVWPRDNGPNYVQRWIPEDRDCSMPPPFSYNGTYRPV
How it was run: as §1

Row | Structure (SMILES) | IC50 [1] | IC50 [2] | IC50 (recombinant human VAP-1) | IC50 [3]
1 | NCC(Cn1nc2cc(C#Cc3ccc4c(c3)NCCO4)ccn2c1=O)=C(F)F [Example 59, 2-[2-(aminomethyl)-3,3-difluoro-allyl]-7-[2-(3,4-dihydro-2H-1,4-benzoxazin-6-yl)ethynyl]-[1,2,4]triazolo[4,3-a]pyridin-3-one ditrifluoroacetate] | 2700 nM | > 100000 nM | 1.8 nM | 9000 nM
2 | NCC(Cn1nc2cc(C#Cc3cnc4c(c3)NCCO4)ccn2c1=O)=C(F)F [Example 60, 2-[2-(aminomethyl)-3,3-difluoro-allyl]-7-[2-(2,3-dihydro-1H-pyrido[2,3-b][1,4]oxazin-7-yl)ethynyl]-[1,2,4]triazolo[4,3-a]pyridin-3-one ditrifluoroacetate] | > 100000 nM | > 100000 nM | 0.4 nM | 220 nM
3 | NCC(Cn1nc2cc(C#Cc3cnc4c(c3)OCCN4)ccn2c1=O)=C(F)F [Example 61, 2-[2-(aminomethyl)-3,3-difluoro-allyl]-7-[2-(3,4-dihydro-2H-pyrido[3,2-b][1,4]oxazin-7-yl)ethynyl]-[1,2,4]triazolo[4,3-a]pyridin-3-one ditrifluoroacetate] | 37000 nM | > 100000 nM | 0.6 nM | 220 nM
4 | NCC(Cn1nc2cc(C#Cc3ccc4c(c3)CCC(=O)N4)ccn2c1=O)=C(F)F [Example 62, 6-[2-[2-[2-(aminomethyl)-3,3-difluoro-allyl]-3-oxo-[1,2,4]triazolo[4,3-a]pyridin-7-yl]ethynyl]-3,4-dihydro-1H-quinolin-2-one trifluoroacetate] | 14000 nM | > 100000 nM | 0.2 nM | 150 nM
5 | CN1CCOc2cc(C#Cc3ccn4c(=O)n(CC(CN)=C(F)F)nc4c3)ccc21 [Example 63, 2-[2-(aminomethyl)-3,3-difluoro-allyl]-7-[2-(4-methyl-2,3-dihydro-1,4-benzoxazin-7-yl)ethynyl]-[1,2,4]triazolo[4,3-a]pyridin-3-one trifluoroacetate] | > 100000 nM | > 100000 nM | 2.2 nM | 320 nM
